Structures can show the parent of a compound that is named as a salt. Where two headings read alike, the source gives them in different places.
How the values were obtained:
Assay type in all cases: cell-based
[1] = test system: HIV-1; assay: Anti-HIV activity: inhibition of cell pathological effect (CPE); details: Human immunodeficiency virus 1; inhibition of cell pathological effect of HIV-1
Protocol: (§1) Per well of polystyrene plate (Immulon IB, Dynex Technology, Chantilly, Va.) was applied with HIV IG (a buffer of 0.085 M sodium carbonate and sodium bicarbonate, pH=9.6), stood at 4° C. over night, washed with PBS-T buffer (0.01 M PBS contains 0.05% Tween-20). The reaction was […] with PBS containing 1% skimmed milk (Bio-Rad Inc., Hercules, Calif.). A virus dissolved product was added to the wells, incubated at 37° C. for 1 hour, and washed. To the washed wells were added anti-P24 mAb (183-12H-5C), biotin labeled antimouse IgG1 (Santa Cruz Biotech., Santa Cruz, Calif.), SA-HRP and TMB successively. The reaction was terminated with 1N H2SO4. The absorption was detected at 450 nm by means of ELISA detector (Ultra 384, Tecan). Recombination protein p24 (US Biological, Swampscott, Mass.) was considered when the response curve of standard dosage was established. The inhibition activity IC50 (half inhibition concentration) values of p24 protein and (cell pathological effect) CPE were calculated by Calcusyn software provided by Sloan-Kettering Cancer Center (New York).
(§2) The inhibition activity (IC50) of pathological effect (CPE) and cytotoxicity (CC50) of p24 antigens and cells of HIV-1 of the compounds of part of examples were shown as follows: […]

[2] = Cytotoxicity (XTT assay); details: half toxic concentration, incubation 4 days at 37° C.
Protocol: To 100 μl solution per compound on 96 wells cultivation plate at a certain concentration was added the same volume of cells (5×10^5/ml). Incubation was performed at 37° C. for 4 days. To the resultant were added 50 μl XTT solution (1 mg/ml) and 0.02 nM PMS. After the incubation was performed for 4 hours, the absorption was detected at 450 nm by means of ELISA detector. The CC50 (half toxic concentration) value was calculated by Calcusyn software provided by Sloan-Kettering Cancer Center (New York).
as §2

[3] = test system: p24 antigens of HIV-1; assay: Anti-HIV activity: inhibition of p24 antigen (ELISA)
Protocol: as §1, §2

[4] = Human immunodeficiency virus 1, inhibition of HIV-1 p24 antigen, ELISA at 450 nm, read-out: IC50 (μM) p24

Cc1ccc(C(c2cccc(CN3CCCNCCNCCCNCC3)c2)c2cccc(CN3CCCNCCNCCCNCC3)c2)cc1 [Example 2, 3,3′-bis[(1,4,8,11-tetraazacyclotetradecan-1-yl)-methyl]-4″-methyl-1,1′,1″-triphenylmethane octahydrobromide dihydrate]
IC50 [1]: 0.48 ± 0.31 µM
CC50 at 4 days [2]: 285000 ± 18800 nM
IC50 [3, 4]: 0.17 ± 0.08 µM

c1ccc(C(c2cccc(CN3CCCNCc4cccc(n4)CNCCC3)c2)c2cccc(CN3CCCNCc4cccc(n4)CNCCC3)c2)cc1 [Example 19, 3,3′-bis{[3,7,11,17-tetraaza-dicyclo[11.3.1]heptadecan-1(16),13(17),14-trien-7-yl]-methyl}-1,1′,1″-triphenyl methane hexahydrobromide dihydrate]
IC50 [1]: 0.79 ± 0.02 µM
CC50 at 4 days [2]: 14500 ± 1290 nM
IC50 [3, 4]: 0.44 ± 0.04 µM

Brc1ccc(C(c2ccc(CN3CCCNCCNCCCNCC3)cc2)c2ccc(CN3CCCNCCNCCCNCC3)cc2)cc1 [Example 9, 4,4′-bis[(1,4,8,11-tetraazacyclotetradecan-1-yl)-methyl]-4″-bromo-1,1′,1″-triphenylmethane octahydrobromide dihydrate]
IC50 [1]: 1.75 ± 0.37 µM
CC50 at 4 days [2]: 65800 ± 7960 nM
IC50 [3, 4]: 0.43 ± 0.07 µM

Fc1ccc(C(c2ccc(CN3CCCNCCNCCCNCC3)cc2)c2ccc(CN3CCCNCCNCCCNCC3)cc2)cc1 [Example 10, 4,4′-bis[(1,4,8,11-tetraazacyclotetradecan-1-yl)-methyl]-4″-fluoro-1,1′,1″-triphenylmethane octahydrobromide dihydrate]
IC50 [1]: 1.22 ± 0.2 µM
CC50 at 4 days [2]: 91300 ± 8750 nM
IC50 [3, 4]: 0.43 ± 0.11 µM

Cc1ccc(C(c2ccc(CN3CCCNCCNCCCNCC3)cc2)c2ccc(CN3CCCNCCNCCCNCC3)cc2)cc1 [Example 8, 4,4′-bis[(1,4,8,11-tetraazacyclotetradecan-1-yl)-methyl]-4″-methyl-1,1′,1″-triphenylmethane octahydrobromide dihydrate]
IC50 [1]: 2.05 ± 0.58 µM
CC50 at 4 days [2]: 130000 ± 12400 nM
IC50 [3, 4]: 0.97 ± 0.14 µM

c1ccc(C(c2cccc(CN3CCCNCCNCCCNCC3)c2)c2cccc(CN3CCCNCCNCCCNCC3)c2)nc1 [Example 6, 2-{[3,3′-bis[(1,4,8,11-tetraazacyclotetradecan-1-yl)-methyl]-1,1′yl]-diphenyl}methylenepyridyl octahydrobromide dihydrate]
IC50 [1]: 0.55 ± 0.16 µM
CC50 at 4 days [2]: 377000 ± 34400 nM
IC50 [3, 4]: 0.16 ± 0.04 µM

c1ccc(C(c2ccc(CN3CCCNCc4cccc(c4)CNCCC3)cc2)c2ccc(CN3CCCNCc4cccc(c4)CNCCC3)cc2)cc1 [Example 25, 4,4′-bis{[3,7,11-triaza-dicyclo[11.3.1]heptadecan-1(16),13(17),14-trien-7-yl]-methyl}-1,1′1″-triphenylmethane hexahydrobromide dihydrate]
IC50 [1]: 1.87 ± 0.28 µM
CC50 at 4 days [2]: 32500 ± 3270 nM
IC50 [3, 4]: 0.55 ± 0.09 µM

Fc1ccc(C(c2cccc(CN3CCCNCCNCCCNCC3)c2)c2cccc(CN3CCCNCCNCCCNCC3)c2)cc1 [Example 4, 3,3′-bis[(1,4,8,11-tetraazacyclotetradecan-1-yl)-methyl]-4″-fluoro-1,1′,1″-triphenylmethane octahydrobromide dihydrate]
IC50 [1]: 0.42 ± 0.06 µM
CC50 at 4 days [2]: 367000 ± 54000 nM
IC50 [3, 4]: 0.32 ± 0.02 µM

Brc1ccc(C(c2cccc(CN3CCCNCCNCCCNCC3)c2)c2cccc(CN3CCCNCCNCCCNCC3)c2)cc1 [Example 3, 3,3′-bis[(1,4,8,11-tetraazacyclotetradecan-1-yl)-methyl]-4″-bromo-1,1′,1″-triphenylmethane octahydrobromide dihydrate]
IC50 [1]: 0.08 ± 0.04 µM
CC50 at 4 days [2]: 161000 ± 4230 nM
IC50 [3, 4]: 0.13 ± 0.01 µM

Cc1ccc(C(c2ccc(CN3CCCNCc4cccc(n4)CNCCC3)cc2)c2ccc(CN3CCCNCc4cccc(n4)CNCCC3)cc2)cc1 [Example 31, 4,4′-bis{[3,7,11,17-tetraaza-dicyclo[11.3.1]heptadecan-1(16),13(17),14-trien-7-yl]-methyl}-4″-methyl-1,1′,1″-triphenylmethane hexahydrobromide dihydrate]
IC50 [1]: 1.07 ± 0.79 µM
CC50 at 4 days [2]: 39290 ± 80 nM
IC50 [3, 4]: 0.78 ± 0.18 µM

Clc1cccc(C(c2cccc(CN3CCCNCCNCCCNCC3)c2)c2cccc(CN3CCCNCCNCCCNCC3)c2)c1 [Example 5, 3,3′-bis[(1,4,8,11-tetraazacyclotetradecan-1-yl)-methyl]-3″-chloro-1,1′,1″-triphenylmethane octahydrobromide dihydrate]
IC50 [1]: 0.23 ± 0.01 µM
CC50 at 4 days [2]: 162000 ± 2690 nM
IC50 [3, 4]: 0.35 ± 0.04 µM

c1ccc(C(c2cccc(CN3CCCNCCNCCCNCC3)c2)c2cccc(CN3CCCNCCNCCCNCC3)c2)cc1 [Example 1, 3,3′-bis[(1,4,8,11-tetraazacyclotetradecan-1-yl)-methyl]-1,1′,1″-triphenylmethane octahydrobromide dihydrate]
IC50 [1]: 0.41 ± 0.11 µM
CC50 at 4 days [2]: 322000 ± 7130 nM
IC50 [3, 4]: 0.13 ± 0.02 µM

c1ccc(C(c2ccc(CN3CCCNCCNCCCNCC3)cc2)c2ccc(CN3CCCNCCNCCCNCC3)cc2)cc1 [Example 7, 4,4′-bis[(1,4,8,11-tetraazacyclotetradecan-1-yl)-methyl]-1,1′,1″-triphenylmethane octahydrobromide dihydrate]
IC50 [1]: 2.42 ± 0.4 µM
CC50 at 4 days [2]: 101000 ± 1050 nM
IC50 [3, 4]: 0.98 ± 0.12 µM

Clc1cccc(C(c2cccc(CN3CCCNCc4cccc(n4)CNCCC3)c2)c2cccc(CN3CCCNCc4cccc(n4)CNCCC3)c2)c1 [Example 23, 3,3′-bis{[3,7,11,17-tetraaza-dicyclo[11.3.1]heptadecan-1(16),13(17),14-trien-7-yl]-methyl}-3″-chloro-1,1′,1″-triphenylmethane hexahydrobromide dihydrate]
IC50 [1]: 1.18 ± 0.48 µM
CC50 at 4 days [2]: 15300 ± 560 nM
IC50 [3, 4]: 0.32 ± 0.05 µM

Brc1ccc(C(c2ccc(CN3CCCNCc4cccc(n4)CNCCC3)cc2)c2ccc(CN3CCCNCc4cccc(n4)CNCCC3)cc2)cc1 [Example 32, 4,4′-bis{[3,7,11,17-tetraaza-dicyclo[11.3.1]heptadecan-1(16),13(17),14-trien-7-yl]-methyl}-4″-bromo-1,1′,1″-triphenylmethane hexahydrobromide dihydrate]
IC50 [1]: 0.8 ± 0.23 µM
CC50 at 4 days [2]: 12900 ± 310 nM
IC50 [3, 4]: 0.15 ± 0.02 µM

Clc1cccc(C(c2ccc(CN3CCCNCCNCCCNCC3)cc2)c2ccc(CN3CCCNCCNCCCNCC3)cc2)c1 [Example 11, 4,4′-bis[(1,4,8,11-tetraazacyclotetradecan-1-yl)-methyl]-3″-chloro-1,1′,1″-triphenylmethane octahydrobromide dihydrate]
IC50 [1]: 1.48 ± 0.52 µM
CC50 at 4 days [2]: 67800 ± 13300 nM
IC50 [3, 4]: 0.65 ± 0.2 µM

c1ccc(C(c2cccc(CN3CCCNCc4cccc(c4)CNCCC3)c2)c2cccc(CN3CCCNCc4cccc(c4)CNCCC3)c2)cc1 [Example 13, 3,3′-bis{[3,7,11-triaza-dicyclo[11.3.1]heptadecan-1(16),13(17),14-trien-7-yl]-methyl}-1,1′,1″-triphenylmethane hexahydrobromide dihydrate]
IC50 [1]: 1.56 ± 0.48 µM
CC50 at 4 days [2]: 12400 ± 3690 nM
IC50 ([3]; Human immunodeficiency virus 1, read-out: IC50 (μM) p24): 0.64 ± 0.08 µM
